Columns and labels:
Format in all cases: cell-based, human
[1] = test system: LDLR mRNA expression in HepG2 cells; experiment: LDLR mRNA expression in HepG2 cells, quantitative real-time RT-PCR (Example 12); settings: 24 hours; for fold induction at 10 µM / fold induction at 40 µM: Homo sapiens; for fold induction at 10 µM: read-out: Activity on LDLR mRNA at 10 uM (fold of control); for fold induction at 40 µM: read-out: Activity on LDLR mRNA at 40 uM (fold of control)
Method: (§1) The effects of compounds on the mRNA expressions of LDLR and PCSK9 were examined using quantitative real-time RT-PCR assays. HepG2 cells were treated with various compounds at 10 and 40 uM concentrations for 24 hours. Total RNA was isolated and […] was used to generate cDNA in a reaction containing random primers and M-MLV at 37° C. for 1 h in a volume of 25 μL. Real-time PCR was performed on the cDNA using MCEP REALPLEX 2 SYSTEM (Eppendorf) and Universal MasterMix (Applied Biosystems). Human LDLR, PCSK9, and GAPDH Pre-Developed TaqMan Assay Reagents (Applied Biosystems) were used to assess the levels of mRNA expressions in HepG2. The levels of LDLR and PCSK9 mRNA were normalized to that of GAPDH. Each RNA samples was assayed in duplicate. The fold activity was calculated by dividing mRNA abundance in compound treated cells with that of control.

[2] = test system: LDL ligand uptake activity in HepG2 cells; experiment: DiI-LDL uptake in HepG2 cells (Example 12)
Method: The combined beneficial effects of these novel compounds on elevation of LDLR mRNA levels likely through the mechanism of mRNA stabilization and their inhibitory activity towards PCSK9, the secreted protease that degrades LDLR protein, result in strong increases in LDL ligand uptake activity through increased receptor surface abundance. […] Briefly, HepG2 cells (2×10^5 cells/well) in 24-well culture plates were treated with various compounds at 10 and 40 uM concentrations for 20 hours. The fluorescent 1.1′-dioctadecyl-3,3,3′,3′-tetramethylindocarbocyanin perchlorate (DiI-LDL) (Biomedical Technologies, Stoughton, Mass.) at a concentration of 2 μg/ml was added to cells at the end of treatment. After 4 hours, the medium was removed; cells were washed with cold PBS, and were examined immediately under a fluorescent microscope (Nikon) at 200× amplification. The fluorescent intensity in compound-treated cells was compared to that in untreated control cells. […]

[3] = test system: PCSK9 mRNA expression in HepG2 cells; experiment: PCSK9 mRNA expression in HepG2 cells, quantitative real-time RT-PCR (Example 12); settings: 24 hours
Method: as §1

[4] = 40 uM, 20 hours (second symbol of cell)
[5] = 10 uM, 20 hours (first symbol of cell)

SMILES | Activity on LDLR mRNA at 10 uM (fold of control) ([1]; 10 uM) | Activity on LDLR mRNA at 40 uM (fold of control) ([1]; 40 uM) | Activity in LDL uptake (relative to control) [2, 4] | fold induction at 10 µM ([1]; 10 uM) | fold induction at 40 µM ([1]; 40 uM) | Activity in LDL uptake (relative to control) [2, 5] | PCSK9 mRNA level at 10 uM (fold of control) [3] | Activity on PCSK9 mRNA reduction at 40 uM (fold of control) [3] | PCSK9 mRNA expression, in words ([3]; 10 and 40 uM)
COc1ccc2c(c1OS(=O)(=O)c1ccccc1)CN1CCc3cc4c(cc3C1C2)OCCO4 (centres unmarked) [Compound 115, 11-Methoxy-6,7,8,9,14,14a-hexahydro-2H,3H-1,4-dioxano[5,6-g]isoquinolino[3,2-a]isoquinolin-10-yl benzenesulfonate] | 0.51 ± 0.11 fold of control | 2.65 ± 0.06 fold of control | +++ |  |  |  |  |  | 
COc1ccc2c(c1)CCN1Cc3c(ccc(OC)c3OS(=O)(=O)c3ccccc3)CC21 (centres unmarked) [Compound 116, 3,10-Dimethoxy-5,6,7,8,13,13a-hexahydroisoquinolino[2,1-b]isoquinolin-9-yl benzenesulfonate] |  |  | +++/+++ | 1.41 ± 0.04 | 7.19 ± 1.29 | +++/+++ |  |  | 
COc1ccc2c(c1OS(=O)(=O)c1ccccc1)CN1CCc3cc(C)ccc3C1C2 (centres unmarked) [Compound 121, 10-Methoxy-3-methyl-5,6,7,8,13,13a-hexahydroisoquinolino[2,1-b]isoquinolin-9-yl benzenesulfonate] |  |  | + | 3.56 ± 0.03 | 3.43 ± 0.81 | +++ |  |  | 
COc1cc2c(cc1OC)C1Cc3ccc(OC)c(OS(=O)(=O)c4cccc(F)c4)c3CN1CC2 (centres unmarked) [Compound 127, 2,3,10-Trimethoxy-5,6,7,8,13,13a-hexahydroisoquinolino[2,1-b]isoquinolin-9-yl 3-fluorobenzenesulfonate] |  |  | +++/+++ | 1.8 ± 0.13 | 2.38 ± 0.38 | +++/+++ | 0.197 ± 0.014 fold of control | 0.192 ± 0.016 fold of control | strongly inhibits PCSK9 expression
COc1ccc2c(c1)CCN1Cc3c(ccc(OC)c3OS(=O)(=O)c3cccc(F)c3)CC21 (centres unmarked) [Compound 128, 3,10-Dimethoxy-5,6,7,8,13,13a-hexahydroisoquinolino[2,1-b]isoquinolin-9-yl 3-fluorobenzenesulfonate] |  |  | +++/+++ | 7.52 ± 0.26 | 13.4 ± 0.46 | +++/+++ | 0.96 ± 0.00 fold of control | 0.86 ± 0.029 fold of control | 
COc1ccc2c(c1OS(=O)(=O)c1cccc(F)c1)CN1CCc3cc4c(cc3C1C2)OCCO4 (centres unmarked) [Compound 129, 11-Methoxy-6,7,8,9,14,14a-hexahydro-2H,3H-1,4-dioxano[5,6-g]isoquinolino[3,2-a]isoquinolin-10-yl 3-fluorobenzenesulfonate] |  |  | ++ | 2.49 ± 0.18 | 1.99 ± 0.13 | + | 1.57 ± 0.07 fold of control | 1.68 ± 0.41 fold of control | 
COc1ccc2c(c1OS(=O)(=O)c1cccc(F)c1)CN1CCc3cc(C)ccc3C1C2 (centres unmarked) [Compound 130, 10-Methoxy-3-methyl-5,6,7,8,13,13a-hexahydroisoquinolino[2,1-b]isoquinolin-9-yl 3-fluorobenzenesulfonate] |  |  | + | 4.29 ± 0.65 | 9 ± 1.49 | ++ | 2.11 ± 0.11 fold of control | 0.84 ± 0.12 fold of control | 
COC(=O)c1cc2c(cc1OC)CCN1Cc3c(ccc(OC)c3OS(=O)(=O)c3ccccc3)CC21 (centres unmarked) [Compound 131, Methyl 3,10-dimethoxy-9-(phenylsulfonyloxy)-5,6,7,8,13,13a-hexahydroisoquinolino[3,2-a]isoquinoline-2-carboxylate] |  |  | +/+ | 0.67 ± 0.05 | 2.25 ± 0.13 | +/+ | 0.87 ± 0.04 fold of control | 0.72 ± 0.10 fold of control | 
COc1cc2c(cc1CO)C1Cc3ccc(OC)c(OS(=O)(=O)c4ccccc4)c3CN1CC2 (centres unmarked) [Compound 132, 2-(Hydroxymethyl)-3,10-dimethoxy-5,6,7,8,13,13a-hexahydro isoquinolino[2,1-b]isoquinolin-9-yl benzenesulfonate] |  |  | + | 2.33 ± 0.04 | 6.62 ± 0.9 | ++ | 1.85 ± 0.12 fold of control | 0.73 ± 0.15 fold of control | 
CCOc1ccc2c(c1)CCN1Cc3c(ccc(OC)c3OS(=O)(=O)c3ccccc3)CC21 (centres unmarked) [Compound 133, 3-Ethoxy-10-methoxy-5,6,7,8,13,13a-hexahydroisoquinolino[2,1-b]isoquinolin-9-yl benzenesulfonate] |  |  | + | 4.92 | 6.61 ± 0.16 | ++ | 1.04 ± 0.08 fold of control | 0.49 ± 0.01 fold of control | 
COc1ccc2c(c1OS(=O)(=O)c1ccccc1)CN1CCc3ccccc3C1C2 (centres unmarked) [Compound 134, 10-Methoxy-5,6,7,8,13,13a-hexahydroisoquinolino[2,1-b]isoquinolin-9-yl benzenesulfonate] |  |  | + | 1.41 ± 0.07 | 6.23 ± 0.64 |  | 1.25 ± 0.03 fold of control | 0.86 ± 0.02 fold of control | 
COc1cc2c(cc1OCC(=O)O)C1Cc3ccc(OC)c(OS(=O)(=O)c4ccccc4)c3CN1CC2 (centres unmarked) [Compound 144, 2-[3,10-dimethoxy-9-(phenylsulfonyloxy)-5,6,7,8,13,13a-hexahydroisoquinolino[3,2-a]isoquinolin-2-yloxy]acetic acid] |  |  |  | 1.02 ± 0.09 | 2.69 ± 0.31 |  | 0.99 ± 0.09 fold of control | 1.84 ± 0.15 fold of control | 
COc1ccc2c(c1)CCN1Cc3c(OS(=O)(=O)c4cccc(F)c4)ccc(Br)c3CC21 (centres unmarked) [Compound 149, 12-bromo-3-methoxy-5,6,7,8,13,13a-hexahydroisoquinolino[2,1-b]isoquinolin-9-yl 3-fluorobenzenesulfonate] |  |  | +/+ |  |  | +/+ |  |  | 
COc1ccc2c(c1)CCN1Cc3c(cccc3OS(=O)(=O)c3cccc(F)c3)CC21 (centres unmarked) [Compound 150, 3-methoxy-5,6,7,8,13,13a-hexahydroisoquinolino[2,1-b]isoquinolin-9-yl 3-fluorobenzenesulfonate] |  |  | ++ |  |  | + |  |  | 
COc1ccc2c(c1)CCN1Cc3c(O)cccc3CC21 (centres unmarked) [Compound 151, 3-methoxy-5,6,7,8,13,13a-hexahydroisoquinolino[2,1-b]isoquinolin-9-ol] |  |  | + |  |  |  |  |  | 

From patent US20110009628A1, “Compounds and Compositions for Modulating Lipid Levels and Methods of Preparing Same” (priority 2009, published 2011)
